Test results from ChEMBL document CHEMBL5344417.

What was measured:
[1] = target: T1, Peroxisome proliferator-activated receptor alpha (Homo sapiens) (UniProt Q07869); conditions: filed as agonist
T1 sequence (whole entry): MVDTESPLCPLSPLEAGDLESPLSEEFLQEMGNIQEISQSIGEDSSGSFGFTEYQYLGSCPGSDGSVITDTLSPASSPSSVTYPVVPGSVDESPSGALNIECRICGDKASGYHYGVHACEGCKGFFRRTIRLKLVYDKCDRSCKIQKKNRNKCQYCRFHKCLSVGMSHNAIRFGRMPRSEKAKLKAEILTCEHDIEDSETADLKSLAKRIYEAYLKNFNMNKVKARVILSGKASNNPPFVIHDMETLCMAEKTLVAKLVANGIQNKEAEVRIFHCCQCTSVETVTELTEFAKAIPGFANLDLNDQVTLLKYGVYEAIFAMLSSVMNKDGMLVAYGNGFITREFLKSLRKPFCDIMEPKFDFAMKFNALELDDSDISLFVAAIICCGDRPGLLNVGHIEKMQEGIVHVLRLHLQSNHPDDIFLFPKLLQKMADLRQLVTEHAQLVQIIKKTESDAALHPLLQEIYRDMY
Description: Binding affinity to recombinant PPAR alpha LBD (unknown origin) expressed in Escherichia coli BL21 assessed as melting temperature by differential scanning calorimetry analysis (Rvb = 47.45 degreeC)

[2] = target: T2, Peroxisome proliferator-activated receptor gamma (Homo sapiens) (UniProt P37231); conditions: filed as agonist
T2 sequence (whole entry): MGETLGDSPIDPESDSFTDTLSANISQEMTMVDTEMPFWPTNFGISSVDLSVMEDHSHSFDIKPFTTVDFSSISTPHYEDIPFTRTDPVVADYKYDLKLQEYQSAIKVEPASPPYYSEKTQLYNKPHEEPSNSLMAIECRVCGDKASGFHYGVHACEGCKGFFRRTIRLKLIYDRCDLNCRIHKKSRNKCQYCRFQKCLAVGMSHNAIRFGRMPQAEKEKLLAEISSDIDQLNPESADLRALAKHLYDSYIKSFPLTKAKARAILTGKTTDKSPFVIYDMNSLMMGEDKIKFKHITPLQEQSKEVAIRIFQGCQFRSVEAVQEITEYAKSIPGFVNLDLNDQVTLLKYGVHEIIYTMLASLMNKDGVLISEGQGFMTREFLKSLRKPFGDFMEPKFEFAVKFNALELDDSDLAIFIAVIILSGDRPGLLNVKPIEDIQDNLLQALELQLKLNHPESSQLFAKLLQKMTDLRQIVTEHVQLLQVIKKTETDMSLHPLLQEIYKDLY

| SMILES | Tm [1] [°C] | Tm [2] [°C] |
| --- | --- | --- |
| Cc1cccc(Nc2cc(Cl)nc(SCC(=O)O)n2)c1C | 50 | – |
| CN(CCOc1ccc(CC2SC(=O)NC2=O)cc1)c1ccccn1 (configuration not stated) | – | 53 |
